Data taken from patent US7943660B2, “Inhibitors of the LFA-1/ICAM-1 interaction and uses thereof” (Dominion Pharmakine S.L., priority 2005, dated 2011).

Experiments:
[1] = test system: Co26 murine colon carcinoma (Co26-CC) cell adhesion to HSE cells; assay: Co26 colon carcinoma cell adhesion to HSE cells; format: cell-based; details: FIG. 6B
Method: Time-dependent adhesion assays was carried out on a quantitative basis according to previous validated bioassays (Vidal-Vanaclocha et al., Cancer Research, 1994, 54(10):2667-72). For tumor cell pre-labelling, they were allowed to accumulate the non-fluorescent sterase substrate BCECF-AM and to hydrolyze it to its fluorescent product BCECF which becomes trapped inside living cells. To do this, 50 μg of BCECF-AM were diluted in dry DMSO (5 μl) and DME medium until […] (40 μg/ml).
Tumor cells (5×10^6) were incubated in BCECF-AM solution at 37° C. for 30 min. After gently washing, tumor cells were resuspended in fresh medium (DMEM without phenol red) at a concentration of 2×10^6 cells/ml.
Twenty-four hours post-plating, primary cultured hepatic sinusoidal endothelial (HSE) cells were also used for adhesion assay. To determine the basal autofluorescence per well, plates were read on a fluorometric microplate reader (Multiskan Ascent, Thermo Labsystems) using 485/22 nm excitation and the 530/25 nm emission filter. Then, 2×10^5 labeled tumor cells were added to each well of HSE cells and to collagen pre-coated control wells.
However, in order to determine the exact number of cells in each well, co-culture plates were read for a second time. Then, plates were incubated at 37° C. […]

[2] = test system: Human peripheral blood lymphocyte (PBL) adhesion to immobilized human recombinant ICAM-1; assay: Human PBL adhesion assay to immobilized recombinant human ICAM-1; format: cell-based; details: PBLs 100 ng/ml PMA 30 min, then HC0303 20 μg/5×10^5 cells for 30 min; FIG. 7; P<0.01
Method: Ninety six-well plates were coated with 2 μg/ml recombinant human ICAM-1 (R&D Systems, Minneapolis, Minn.) at 4° C. overnight. Nonspecific binding sites on plastic were blocked by treating the wells with 100 μl of PBS containing 0.5% BSA for 2 h at room temperature. Isolated human PBLs were incubated with either basal medium or 100 ng/ml PMA for 30 min. Then, PBLs were BCECF-AM-labeled and after washing, the compound HC0303 (20 μg/5×10^5 cells) was added for 30 min.
For adhesion assay, PBLs (5×10^4 per well) were added to quadruplicate wells. Then, plates were incubated for 1 hour at 37° C. before unattached cells were removed by washing three times with fresh medium. The number of adhering cells was determined using the same quantitative fluorescence measurement system as above described.
That this anti-adhesive effect of compound HC0303 is due to LFA-1/ICAM-1 interaction blockade was further confirmed along a lymphocyte adhesion assay to immobilized ICAM-1 substrate. Cultured PBLs were incubated with either basal medium or 100 ng/ml PMA for 30 min. Then, PBLs were BCECF-AM-labeled and after washing, compound HC0303 (20 μg/5×10^5 cells) was added for 30 minutes prior to the adhesion assay to a ICAM-1-coated plate. […] The results are the mean ±SD of three separate experiments, each in sextuplicate (n=18). […]

Co26-CC cells [3] = assay: Hepatic metastasis assay (intrasplenic injection of Co26-CC cells); format: in vivo, BALB/c mice; details: Co26-CC cells preincubated with 10 μg/ml HC0303 for 30 min before intrasplenic injection; day 14; vs untreated cells; FIG. 9; P<0.01
Method: Hepatic metastases were produced by the intrasplenic injection into anesthetized male BALB/c mice (6- to 8-weeks old) of 1.5×10^5 viable Co26-CC cells suspended in 0.1 ml Hanks' balanced salt solution. Some cells were incubated with 10 μg/ml compound HC0303 for 30 min prior to their inoculation. Mice were killed by cervical dislocation on the 14th day after the injection of cancer cells. An integrated image analysis system (Olympus Microimage 4.0 capture kit) connected to an Olympus BX51TF microscope was used to quantify the number of foci and their average diameters in serially-cut and hematoxylin/eosin stained hepatic tissue sections.
Densitometric analysis of digitalized microscopic images was used to distinguish metastatic tissue from normal hepatic tissue. Previously described stereological procedures were employed (cf. Vidal-Vanaclocha et al., Cancer Research, 1994, 54(10):2667-72) and the following parameters were calculated: the liver metastasis density, which was the number of metastases per 100 mm^3 of liver (based on the mean number of foci detected in fifteen 10×10 mm^2 sections per liver) and the liver metastasis volume (mean percentage of liver volume occupied by metastases).
In vitro effect of compound HC0303 on in vivo metastatic behavior of cancer cells was tested in Co26-CC cells. […] In addition, the percentage of liver volume occupied by metastases was assessed. […]

Co26-CC cells [4] = assay: Viability of Co26-CC cells after in vitro pretreatment; format: cell-based, murine; details: in vitro cancer cell pretreatment with HC0303

- melting point: 104 to 105 °C
SMILES: CC[C@H](C)C(OCc1ccccc1)[C@@H]1[C@H]([N+](=O)[O-])[C@H](c2ccccc2)N[C@]1(C)C(=O)NCCC(=O)O (stereo partly drawn) [HC0303, 3-[(2S,3R,4S,5S)-3-[(2S)-1-(Benzyloxy)-2-methylbutyl]-2-methyl-4-nitro-5-phenylpyrrolidine-2-carboxamido]propanoic acid]
- PMA-induced cancer cell adhesion to HSE cells ([1]; 100 ng/ml PMA 30 min, then HC0303 20 μg/5×10^5 cells for 30 min, P<0.01): significantly decreased
- adhesion to untreated HSE cells (no PMA) ([1]; HC0303 20 μg/5×10^5 cells for 30 min): did not affect
- PMA-induced adhesion of PBLs to immobilized human recombinant ICAM-1 [2]: significantly decreased
- liver metastasis density (number of foci/100 mm^3) (Co26-CC cells [3]): almost abrogated
- liver metastasis volume (percentage of liver volume occupied by metastases) (Co26-CC cells [3]): almost abrogated
- Cell viability of Co26-CC cells (Co26-CC cells [4]): without Affecting Cell Viability
